Laboratory results as given in patent publication US10544130B2, “Metallo-beta-lactamase inhibitors” (priority 2015, dated 2020).
Counter-ions that a name gives are not always drawn. Like-named read-outs stand apart in the source and are kept apart here.

Columns and labels:
[1] = tested on: Escherichia coli expressing NDM-1 (CLB30005, CLB30016); assay type: cell-based; conditions: with imipenem 1 μg/ml, 95% inhibition of bacterial growth
Summary of the method: (§1)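 Clinical strains were grown overnight at 35 °C on blood agar, adjusted to set OD600 in saline and diluted 1:100 into 1.1× CAMHB. Inhibitor was tested with and without imipenem at 1 μg/ml. After 22–24 h at 35 °C, absorbance was read to give synergistic concentration.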

[2] = tested on: Serratia marcescens expressing IMP-1 (CL5741); assay type: cell-based; conditions: with imipenem 1 μg/ml, 95% inhibition of bacterial growth
Summary of the method: as §1

[3] = tested on: Pseudomonas aeruginosa PAO1 MB9798 (efflux+, IMP-1); conditions: ratio MITC95 PA 9798/MITC95 PA 9799; imipenem at 2 μg/mL
Summary of the method: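 Isogenic PAO1 pair (efflux+ MB9798, efflux− MB9799, both IMP-1) tested by microbroth MIC with fixed imipenem and/or ceftazidime, usually at CLSI breakpoint, plus fixed class A/C inhibitor against AmpC. MBL inhibitor titrated; concentration restoring susceptibility recorded and fold difference between strains taken as efflux extent.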

## Nc1nc2c(-c3ccc(S(=O)(=O)NCC4(O)CNC4)c(S(N)(=O)=O)c3-c3nn[nH]n3)cccc2s1 [Example 387, 4-(2-amino-1,3-benzothiazol-4-yl)-N^1-[(3-hydroxyazetidin-3-yl)methyl]-3-(2H-tetrazol-5-yl)benzene-1,2-disulfonamide]
[1]
  Escherichia coli (NDM-1) MITC95: 1.563 µM
[2]
  Serratia marcescens (IMP-1) MITC95: 1.563 µM

## NS(=O)(=O)c1c(S(=O)(=O)N[C@@H]2CCNC2)ccc(-c2cccc(Nc3nc(CO)cs3)c2)c1-c1nn[nH]n1 [Example 470, (R)-3′-((4-(hydroxymethyl)thiazol-2-yl)amino)-N4-(pyrrolidin-3-yl)-2-(2H-tetrazol-5-yl)-[1,1′-biphenyl]-3,4-disulfonamide]
[1]
  Escherichia coli (NDM-1) MITC95: 0.7813 µM
[2]
  Serratia marcescens (IMP-1) MITC95: 1.563 µM

## NCc1nc2c(-c3ccc(S(=O)(=O)NC[C@H](O)CN)c(S(N)(=O)=O)c3-c3nn[nH]n3)cccc2[nH]1 [Example 299, (R)—N1-(3-amino-2-hydroxypropyl)-4-(2-(aminomethyl)-1H-benzo[d]imidazol-4-yl)-3-(2H-tetrazol-5-yl)benzene-1,2-disulfonamide]
[1]
  Escherichia coli (NDM-1) MITC95: 0.7813 µM
[3]
  Efflux ratio: 1.00

## C[C@@H](CCN)NS(=O)(=O)c1ccc(-c2cccc3[nH]c(N)nc23)c(-c2nn[nH]n2)c1S(N)(=O)=O [Example 267, (S)-4-(2-amino-1H-benzo[d]imidazol-4-yl)-N1-(4-aminobutan-2-yl)-3-(2H-tetrazol-5-yl)benzene-1,2-disulfonamide]
[1]
  Escherichia coli (NDM-1) MITC95: 0.7813 µM
[3]
  Efflux ratio: 1.00

## NCc1sc(N)nc1-c1cccc(-c2ccc(S(=O)(=O)N[C@@H]3CCNC3)c(S(N)(=O)=O)c2-c2nnn[nH]2)c1 [Example 432, (R)-3′-(2-amino-5-(aminomethyl)thiazol-4-yl)-N^4-(pyrrolidin-3-yl)-2-(1H-tetrazol-5-yl)-[1,1′-biphenyl]-3,4-disulfonamide]
[1]
  Escherichia coli (NDM-1) MITC95: 0.7813 µM
[2]
  Serratia marcescens (IMP-1) MITC95: 0.7813 µM

## Nc1nc2c(-c3ccc(S(=O)(=O)NC[C@@]4(N)CCNC4)c(S(N)(=O)=O)c3-c3nn[nH]n3)cccc2s1 [Example 367, (R)-4-(2-aminobenzo[d]thiazol-4-yl)-N1-((3-aminopyrrolidin-3-yl)methyl)-3-(2H-tetrazol-5-yl)benzene-1,2-disulfonamide]
[1]
  Escherichia coli (NDM-1) MITC95: 1.563 µM
[3]
  Efflux ratio: 0.50

## C[N+]1(CCN)CC[C@H](NS(=O)(=O)c2ccc(-c3cccc4[nH]c(N)nc34)c(-c3nn[nH]n3)c2S(N)(=O)=O)C1 (stereo partly drawn) [Example 249, (3S)-3-{[4-(2-amino-1H-1,3-benzodiazol-4-yl)-2-sulfamoyl-3-(2H-1,2,3,4-tetrazol-5-yl)benzene]sulfonamido}-1-(2-aminoethyl)-1-methylpyrrolidin-1-ium methaneperoxoate]
[1]
  Escherichia coli (NDM-1) MITC95: 0.3906 µM
[2]
  Serratia marcescens (IMP-1) MITC95: 1.563 µM

## NCC(CN)NS(=O)(=O)c1ccc(-c2cccc3[nH]nnc23)c(-c2nn[nH]n2)c1S(N)(=O)=O [Example 403, 4-(1H-benzo [d][1,2,3]triazol-4-yl)-N^1-(1,3-diaminopropan-2-yl)-3-(2H-tetrazol-5-yl)benzene-1,2-disulfonamide]
[1]
  Escherichia coli (NDM-1) MITC95: 1.563 µM
[2]
  Serratia marcescens (IMP-1) MITC95: 1.563 µM

## NCc1nc2cc(-c3ccc(S(=O)(=O)NC[C@H](O)CN)c(S(N)(=O)=O)c3-c3nn[nH]n3)ccc2s1 [Example 463, (R)—N1-(3-amino-2-hydroxypropyl)-4-(2-(aminomethyl)benzo[d]thiazol-5-yl)-3-(2H-tetrazol-5-yl)benzene-1,2-disulfonamide]
[1]
  Escherichia coli (NDM-1) MITC95: 0.7813 µM
[2]
  Serratia marcescens (IMP-1) MITC95: 0.7813 µM

## NS(=O)(=O)c1c(S(=O)(=O)N[C@@H]2CNC[C@@H]2O)ccc(-c2cccc3[nH]nnc23)c1-c1nn[nH]n1 [Example 412, 4-(1H-benzo[d][1,2,3]triazol-4-yl)-N^1-((3R,4S)-4-hydroxypyrrolidin-3-yl)-3-(2H-tetrazol-5-yl)benzene-1,2-disulfonamide]
[1]
  Escherichia coli (NDM-1) MITC95: 3.125 µM
[2]
  Serratia marcescens (IMP-1) MITC95: 3.125 µM

## NCCNS(=O)(=O)c1ccc(-c2cccc(NC(=O)[C@H](N)CO)c2)c(-c2nn[nH]n2)c1S(N)(=O)=O [Example 454, (R)-2-amino-N-(4′-(N-(2-aminoethyl)sulfamoyl)-3′-sulfamoyl-2′-(2H-tetrazol-5-yl)-[1,1′-biphenyl]-3-yl)-3-hydroxypropanamide]
[1]
  Escherichia coli (NDM-1) MITC95: 1.563 µM
[2]
  Serratia marcescens (IMP-1) MITC95: 3.125 µM

## NC(=O)c1nc2c(-c3ccc(S(=O)(=O)N[C@H]4CCNC4)c(S(N)(=O)=O)c3-c3nn[nH]n3)cccc2[nH]1 [Example 292, (S)-4-(4-(N-(pyrrolidin-3-yl)sulfamoyl)-3-sulfamoyl-2-(2H-tetrazol-5-yl)phenyl)-1H-benzo[d]imidazole-2-carboxamide]
[1]
  Escherichia coli (NDM-1) MITC95: 1.563 µM
[3]
  Efflux ratio: 0.50

## NCCNS(=O)(=O)c1ccc(-c2cccc3[nH]c([C@@H](N)CO)nc23)c(-c2nn[nH]n2)c1S(N)(=O)=O [Example 331, (R)-4-(2-(1-amino-2-hydroxyethyl)-1H-benzo[d]imidazol-4-yl)-N1-(2-aminoethyl)-3-(2H-tetrazol-5-yl)benzene-1,2-disulfonamide]
[1]
  Escherichia coli (NDM-1) MITC95: 1.563 µM
[3]
  Efflux ratio: 1.00

## CNc1nc2c(-c3ccc(S(=O)(=O)NCCN)c(S(N)(=O)=O)c3-c3nn[nH]n3)cccc2[nH]1 [Example 467, N1-(2-aminoethyl)-4-(2-(methylamino)-1H-benzo[d]imidazol-4-yl)-3-(2H-tetrazol-5-yl)benzene-1,2-disulfonamide]
[1]
  Escherichia coli (NDM-1) MITC95: 0.7813 µM
[2]
  Serratia marcescens (IMP-1) MITC95: 0.7813 µM

## NS(=O)(=O)c1c(S(=O)(=O)N[C@@H]2CCNC2)ccc(-c2cccn3ccnc23)c1-c1nn[nH]n1 [Example 291, (R)-4-(imidazo[1,2-a]pyridin-8-yl)-N1-(pyrrolidin-3-yl)-3-(2H-tetrazol-5-yl)benzene-1,2-disulfonamide]
[1]
  Escherichia coli (NDM-1) MITC95: 0.7813 µM
[3]
  Efflux ratio: 1.00

## NCCN1CC[C@H](NS(=O)(=O)c2ccc(-c3cccc4[nH]c(N)nc34)c(-c3nn[nH]n3)c2S(N)(=O)=O)C1 [Example 268, (S)-4-(2-amino-1H-benzo[d]imidazol-4-yl)-N1-(1-(2-aminoethyl)pyrrolidin-3-yl)-3-(2H-tetrazol-5-yl)benzene-1,2-disulfonamide]
[1]
  Escherichia coli (NDM-1) MITC95: 0.7813 µM
[3]
  Efflux ratio: 1.00

## NCCN1CC[C@@H](NS(=O)(=O)c2ccc(-c3ccc(N)nc3)c(-c3nn[nH]n3)c2S(N)(=O)=O)C1 [Example 500, (R)—N1-(1-(2-aminoethyl)pyrrolidin-3-yl)-4-(6-aminopyridin-3-yl)-3-(2H-tetrazol-5-yl)benzene-1,2-disulfonamide]
[1]; CLB30016
  Escherichia coli (NDM-1) MITC95: 1.563 µM
[2]; CL5741
  Serratia marcescens (IMP-1) MITC95: 1.563 µM

## C[C@H](CN)NS(=O)(=O)c1ccc(-c2cccc3[nH]c(CN)nc23)c(-c2nn[nH]n2)c1S(N)(=O)=O [Example 383, (R)-4-(2-(aminomethyl)-1H-benzo[d]imidazol-4-yl)-N1-(1-aminopropan-2-yl)-3-(2H-tetrazol-5-yl)benzene-1,2-disulfonamide]
[1]
  Escherichia coli (NDM-1) MITC95: 0.7813 µM
[3]
  Efflux ratio: 1.00

## NCc1nc2c(-c3ccc(S(=O)(=O)N[C@@H]4CCNC4)c(S(N)(=O)=O)c3-c3nn[nH]n3)cccc2[nH]1 [Example 283, (R)-4-(2-(aminomethyl)-1H-benzo[d]imidazol-4-yl)-N1-(pyrrolidin-3-yl)-3-(2H-tetrazol-5-yl)benzene-1,2-disulfonamide]
[1]
  Escherichia coli (NDM-1) MITC95: 0.7813 µM
[3]
  Efflux ratio: 1.00

## C[N+](C)(C)CCCNS(=O)(=O)c1ccc(-c2cccc3sc(N)nc23)c(-c2nnn[nH]2)c1S(N)(=O)=O [Example 392, 3-({[4-(2-amino-1,3-benzothiazol-4-yl)-2-sulfamoyl-3-(1H-tetrazol-5-yl)phenyl]sulfonyl}amino)-N,N,N-trimethylpropan-1-amimum trifluoroacetate]
[1]
  Escherichia coli (NDM-1) MITC95: 3.125 µM
[2]
  Serratia marcescens (IMP-1) MITC95: 3.125 µM

## C[C@@H](N)c1nc2c(-c3ccc(S(=O)(=O)N[C@@H]4CCNC4)c(S(N)(=O)=O)c3-c3nn[nH]n3)cccc2[nH]1 [Example 273, 4-(2-((R)-1-aminoethyl)-1H-benzo[d]imidazol-4-yl)-N1-((R)-pyrrolidin-3-yl)-3-(2H-tetrazol-5-yl)benzene-1,2-disulfonamide]
[1]
  Escherichia coli (NDM-1) MITC95: 1.563 µM
[3]
  Efflux ratio: 1.00

## Nc1ccc(-c2ccc(S(=O)(=O)NC3CNC3)c(S(N)(=O)=O)c2-c2nn[nH]n2)cn1 [Example 493, 4-(6-aminopyridin-3-yl)-N1-(azetidin-3-yl)-3-(2H-tetrazol-5-yl)benzene-1,2-disulfonamide]
[1]
  Escherichia coli (NDM-1) MITC95: 0.3906 µM
[2]
  Serratia marcescens (IMP-1) MITC95: 0.3906 µM

## CC[C@@H](CN)NS(=O)(=O)c1ccc(-c2cccc3[nH]c(N)nc23)c(-c2nn[nH]n2)c1S(N)(=O)=O [Example 264, (S)-4-(2-amino-1H-benzo[d]imidazol-4-yl)-N1-(1-aminobutan-2-yl)-3-(2H-tetrazol-5-yl)benzene-1,2-disulfonamide]
[1]
  Escherichia coli (NDM-1) MITC95: 0.7813 µM
[3]
  Efflux ratio: 4.00

## N[C@H](CO)c1nc2c(-c3ccc(S(=O)(=O)N[C@H]4CNC[C@H]4N)c(S(N)(=O)=O)c3-c3nn[nH]n3)cccc2[nH]1 [Example 323, 4-(2-((S)-1-amino-2-hydroxyethyl)-1H-benzo[d]imidazol-4-yl)-N1-((3S,4R)-4-aminopyrrolidin-3-yl)-3-(2H-tetrazol-5-yl)benzene-1,2-disulfonamide]
[1]
  Escherichia coli (NDM-1) MITC95: 1.563 µM
[3]
  Efflux ratio: 1.00
